Measured values from patent publication US8822506B2, “Use of succinate dehydrogenase inhibitors for controlling powdery mildew primary infections” (Bayer Cropscience AG, priority 2009, dated 2014).

Experiments:
Assay type in all cases: in vivo, Podosphera leucotricha
[1] = tested on: Powdery mildew; test: Apple orchard field trial, powdery mildew secondary infections on leaves (incidence), assessed 10 days after application 8; conditions: for 10DAT8 [% infested leaves] / 10DAT8 [% efficacy] (Abbott): apples, 10 days after application 8; for 10DAT8 [% infested leaves]: 8 applications at 10-day interval, untreated 96; for 10DAT8 [% efficacy] (Abbott): 8 applications, infested leaves
Procedure: (§1) Fluopyram was tested in apples orchard in comparison with already know fungicides active against Powdery mildew such as triadimenol (Bayleton) and boscalid.
(§2) Fluopyram was applied at range of rates: 18.5 g-25 g-37.5-50 g a.s./ha/meter canopy height (g ha/m c.h.). Bayleton was applied at 25 g a.s./ha/m c.h. Boscalid (Cantus WG50) was applied at 125 g a.s./m c.h.
(§3) During the spray season, the compounds were applied at apple susceptible stages from BBCH09 (green leaf tips 5 mm above bud scales to BBCH73 Fruit size between 20 and 40 mm (as described in BBCH Monograph, 2. Edition, 2001, edited by Uwe Meier, Federal Biological Research Centre for Agriculture and Forestry) in order to protect leaves, buds and shoots against Powdery mildew. The compounds have been applied eight times with an interval of ten days during spray season.
(§4) The type of assessments of infections was: • % infested area on leaves (severity) and % infested leaves (incidence) were assessed 10 days after application 8 (10DAT8). • Count and % infested shoots (primary infection) were assessed 345 days after application 8 (345 DAT8). Results

[2] = tested on: Powdery mildew; test: Apple orchard field trial, powdery mildew primary infection of shoots in the following year, assessed 345 days after application 8; conditions: apples, 8 applications; for 345DAT8 [% infested shoots]: 345 days after application 8, no other application, untreated 45.2; for 345DAT8 [% efficacy] (Abbott): 345 days after application 8, infested shoots
Procedure: as §1, §2, §3, §4

[3] = tested on: Powdery mildew; test: as above; conditions: proximate year (assessment 345DAT8), without any other application; dose rate relation, 18.5 to 50 g a.s./m c.h.

Compound: O=C(Nc1ccccc1-c1ccc(Cl)cc1)c1cccnc1Cl [Boscalid, 2-chloro-N-(4′-chlorobiphenyl-2-yl)nicotinamide]
- 10DAT8 [% infested leaves] ([1]; 125 g a.s./ha/m c.h.): 46%
- 10DAT8 [% efficacy] (Abbott) ([1]; 125 g a.s./ha/m c.h.): 52.1%
- 345DAT8 [% infested shoots] ([2]; 125 g a.s./ha/m c.h.): 30.8%
- 345DAT8 [% efficacy] (Abbott) ([2]; 125 g a.s./ha/m c.h.): 31.7%

Compound: O=C(NCCc1ncc(C(F)(F)F)cc1Cl)c1ccccc1C(F)(F)F [Fluopyram, N-{2-[3-chloro-5-(trifluoromethyl)-2-pyridinyl]ethyl}-2-(trifluoromethyl)benzamide]
- 10DAT8 [% infested leaves] ([1]; 18.5 g a.s./ha/m c.h.): 8.7%
- 10DAT8 [% efficacy] (Abbott) ([1]; 18.5 g a.s./ha/m c.h.): 91%
- 10DAT8 [% infested leaves] ([1]; 25 g a.s./ha/m c.h.): 10%
- 10DAT8 [% efficacy] (Abbott) ([1]; 25 g a.s./ha/m c.h.): 89.6%
- 10DAT8 [% infested leaves] ([1]; 37.5 g a.s./ha/m c.h.): 2.7%
- 10DAT8 [% efficacy] (Abbott) ([1]; 37.5 g a.s./ha/m c.h.): 97.2%
- 10DAT8 [% infested leaves] ([1]; 50 g a.s./ha/m c.h.): 0.7%
- 10DAT8 [% efficacy] (Abbott) ([1]; 50 g a.s./ha/m c.h.): 99.3%
- efficacy against powdery mildew on apples against secondary infections (in words) ([1]; assessment 10DAT8, 18.5 g to 50 g a.s./m c.h., visible dose rate effect, superior to triadimenol and boscalid from the lowest rate): excellent efficacy
- 345DAT8 [% infested shoots] ([2]; 18.5 g a.s./ha/m c.h.): 17.7%
- 345DAT8 [% efficacy] (Abbott) ([2]; 18.5 g a.s./ha/m c.h.): 60.9%
- 345DAT8 [% infested shoots] ([2]; 25 g a.s./ha/m c.h.): 14%
- 345DAT8 [% efficacy] (Abbott) ([2]; 25 g a.s./ha/m c.h.): 69%
- 345DAT8 [% infested shoots] ([2]; 37.5 g a.s./ha/m c.h.): 13%
- 345DAT8 [% efficacy] (Abbott) ([2]; 37.5 g a.s./ha/m c.h.): 71.2%
- 345DAT8 [% infested shoots] ([2]; 50 g a.s./ha/m c.h.): 9%
- 345DAT8 [% efficacy] (Abbott) ([2]; 50 g a.s./ha/m c.h.): 80.1%
- level of infection measured by the % of primary infested shoots (in words) [3]: high decrease of infestation

Compound: CC(C)(C)C(O)C(Oc1ccc(Cl)cc1)n1cncn1 (centres unmarked) [Triadimenol]
- 10DAT8 [% infested leaves] ([1]; 25 g a.s./ha/m c.h.): 32%
- 10DAT8 [% efficacy] (Abbott) ([1]; 25 g a.s./ha/m c.h.): 66.7%
- 345DAT8 [% infested shoots] ([2]; 25 g a.s./ha/m c.h.): 27.5%
- 345DAT8 [% efficacy] (Abbott) ([2]; 25 g a.s./ha/m c.h.): 39.1%
